For experiment [1], the target named is T1, Saccharomyces cerevisiae α-glucosidase (Saccharomyces cerevisiae, UniProt P53341).
T1 construct: purchased Shanghai Yuanye Biotechnology Co., Shanghai, China Lot No. M23HS178879 (catalogue number not given)
The experiment is described as follows: biochemical. The note with it: IC50, α-glucosidase 0.2 U/mL, 5 mM pNPG, PBS pH 6.8, 37 °C. On the procedure:
(§1) The α-glucosidase inhibitory effects of flavonoids were evaluated as in a previous report with slight modifications (including changes in the concentrations of the enzyme, substrate, and Na2CO3). Briefly, 50 μL of phosphate-buffered saline (PBS, 0.1 M, pH 6.8), the test compound, and α-glucosidase (0.2 U/mL) were preincubated in a 96-well plate at 37 °C for 10 min. The reaction was then initiated by adding 50 μL of 5 mM pNPG as the substrate. Subsequently, the 96-well plate was incubated for an additional 30 min at 37 °C, then 50 μL of 0.2 M Na2CO3 was added to terminate the reaction. Absorbance was measured at under 405 nm.

The target in experiment [2] is T2, α-glucosidase (Saccharomyces cerevisiae, UniProt P53341).
T2 construct: purchased Shanghai Yuanye Biotechnology Co., Shanghai, China Lot No. M23HS178879 (catalogue number not given)
T2 sequence (P53341 whole entry): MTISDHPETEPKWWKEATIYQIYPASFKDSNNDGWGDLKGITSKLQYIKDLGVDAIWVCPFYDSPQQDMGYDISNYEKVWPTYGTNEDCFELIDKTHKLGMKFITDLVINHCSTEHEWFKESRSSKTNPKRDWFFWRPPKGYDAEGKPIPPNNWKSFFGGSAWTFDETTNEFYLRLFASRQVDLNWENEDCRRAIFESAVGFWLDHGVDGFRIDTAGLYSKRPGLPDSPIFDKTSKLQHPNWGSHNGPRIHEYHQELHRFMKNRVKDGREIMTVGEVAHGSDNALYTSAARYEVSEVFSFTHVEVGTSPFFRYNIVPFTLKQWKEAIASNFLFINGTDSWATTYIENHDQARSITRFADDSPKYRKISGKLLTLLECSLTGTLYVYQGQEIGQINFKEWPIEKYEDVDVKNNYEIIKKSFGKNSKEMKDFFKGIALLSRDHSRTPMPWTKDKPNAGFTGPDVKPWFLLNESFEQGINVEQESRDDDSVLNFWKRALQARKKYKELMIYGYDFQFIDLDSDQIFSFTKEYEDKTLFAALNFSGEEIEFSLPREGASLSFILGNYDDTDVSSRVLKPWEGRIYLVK
The experiment is described as follows: CD spectroscopy, secondary structure of α-glucosidase (BeStSel). Particulars: for β-turn: free enzyme 11.7; for β-sheet: free enzyme 28.8; for random coil: free enzyme 45.2; for α-helix: free enzyme 14.4. On the procedure: CD spectra in the far-UV region (190–250 nm) were scanned by using a CD spectrometer (JASCO-1.5 Tokyo, Japan). […] The slit width was set to 1 nm, and the baseline was calibrated with PBS (phosphate buffered saline). CD spectra were averaged over three scans under a constant nitrogen flow, with the buffer signal subtracted. The results were analyzed using the BeStSel database (https://bestsel.elte.hu/index.php, accessed on 16 May 2025).

Another experiment relates to normal C57BL/6J mice. Put plainly: Oral sucrose test, postprandial blood glucose. It is filed as in vivo. Particulars: for Blood glucose levels: 30 min after sucrose 4 g/kg, n = 8, in mmol/L (unit assumed); for Rate of blood glucose reduction: vs model group, 30 min after sucrose. The source says: Male C57BL/6J mice of SPF grade, aged 6–8 weeks and weighing 18–22 g, were obtained from the Experimental Animal Science Department of Peking University. The mice were housed in a controlled environment with a 12:12 light/dark cycle and a constant temperature. They were provided with standard pellet feed and given free access to drinking water. To ensure acclimatization, the mice were allowed to adjust to the diet and housing conditions for one week prior to the experiment. All animal experiments were performed in compliance with the relevant laws and institutional guidelines for the care and use of laboratory animals in China. The experiments were approved by the Laboratory Animal Management and Ethics Committee of Peking University (LA2021443). Additionally, the certification number for the laboratory animal personnel is 1120111300011.
The 16 flavonoids were subsequently evaluated for their potential antihyperglycemic effects by using the oral sucrose test, which is commonly used to evaluate intestinal α-glucosidase inhibition in vivo [62]. Normal C57BL/6J mice were randomly divided into model groups and the 16 flavonoid compound groups (n = 8 per group), respectively. The flavonoids at different concentrations were suspended in 0.5% sodium carboxymethyl cellulose (CMC-Na). […] Fifteen minutes after drug administration, the mice were given a sucrose solution (4 g/kg). Blood samples were collected from the tail vein at 30 min after sucrose loading, and blood glucose levels were measured using an Accu-Chek Performa glucometer (Roche Diagnostics, SN: 79508621393, Shanghai, China). The rate of blood glucose reduction was calculated using the following Formula (4):(4) The rate of blood glucose reduction%=the model blood glucose-the sample blood glucose/the model blood glucose×100%

In experiment [3] the target is T2, α-glucosidase. The experiment is described as follows: Inhibitory kinetic analysis (Lineweaver–Burk plot). The note with it: Lineweaver–Burk plots, pNPG 0.31–20 mM. Type of experiment: biochemical. The protocol: The type of inhibition was determined by using the kinetics curve and the Lineweaver–Burk plot. […] These compounds were incubated with α-glucosidase at 37 °C for 30 min. After incubation, various concentrations of pNPG (0.31–20 mM) were added, and absorbance was measured at 405 nm. The Lineweaver–Burk plot was obtained by plotting 1/[S] on the x-axis and 1/v on the y-axis, where [S] represents substrate concentration and v represents the reaction velocity.

For experiment [4], the target named is T2, α-glucosidase. Put plainly: Mixture effects of flavonoid combinations on α-glucosidase. It is filed as biochemical. The note with it: for IC05: calculated from the dose–response curve. On the procedure: as §1
The inhibitory activity of the composition was evaluated using the same method described in Section 3.2. […] The combination index (CI, Formula (3)) was subsequently used to assess the interactions between the compounds [60].(2) Y=Bottom+Top−Bottom/1+10^^((LogIC50−X)×HillSlope)
In Formula (3), (D)j represents the concentration of component j in the mixture needed to achieve an effect of x, while (Dx)j denotes the concentration of component j required to produce the same effect when acting alone. Here, x refers to the inhibition rate produced by the composition, and n indicates the number of individual compounds in the composition.

Setting [5] is: molar ratio 10:1, α-glucosidase 4 μM.
[6] abbreviates: molar ratio 40:1, α-glucosidase 4 μM.
The mark [7] stands for this setting: molar ratio compound:α-glucosidase 10:1, α-glucosidase 4 μM.
Setting [8] is: 20 mg/kg oral (acarbose, positive control of each experiment).

“And” between values parts separate entries of the source, which are not always exact repeats. Identical values can stand only once.

This is an account of results in PMC12114633, “α-Glucosidase Inhibition Mechanism and Anti-Hyperglycemic Effects of Flavonoids from Astragali Radix and Their Mixture Effects” (Pharmaceuticals, 2025).

T1 sequence (P53341 whole entry): as above

In experiment [1], `O=C1c2ccc(O)cc2OCC1c1ccc(O)cc1` (stereo not drawn) [C28, dihydrodaidzein] yielded an IC50 of 412 ± 11.4 µM. The results for the β-turn at α-glucosidase [2] (setting [5]) and at α-glucosidase [2] (setting [6]) were 14.4% and 12.9%, respectively. The β-sheet is 25.6% on α-glucosidase [2] (setting [5]) and 20.7% at α-glucosidase [2] (setting [6]). Also, the values for the random coil at α-glucosidase [2] (setting [5]) and at α-glucosidase [2] (setting [6]) were 50.7% and 55.5%, respectively. Moreover, the figures for the α-helix on α-glucosidase [2] (setting [6]) and on α-glucosidase [2] (setting [7]) were 10.9% and 9.30%, respectively. Further, the Blood glucose levels in the experiment on normal C57BL/6J mice (2 mg/kg oral) is on record as 14.84 ± 0.62; with normal C57BL/6J mice (10 mg/kg oral) it was 12.74 ± 0.75; in the experiment on normal C57BL/6J mice (50 mg/kg oral) it was 11.39 ± 1.48. Further, the “Rate of blood glucose reduction” value in the experiment with normal C57BL/6J mice (2 mg/kg oral) is -1.80%; in the experiment on normal C57BL/6J mice (10 mg/kg oral) it was 12.61%; in the experiment with normal C57BL/6J mice (50 mg/kg oral) it was 21.87%. For the same molecule, the “type of inhibition on α-glucosidase” value at α-glucosidase [3] was “mixed-type inhibitors”. Also, the IC05 on α-glucosidase [4] is 98.27 µM.
In the case of `C[C@H]1O[C@H](O[C@H]2[C@H](O)[C@@H](O)[C@@H](O[C@H]3[C@H](O)[C@@H](O)C(O)O[C@@H]3CO)O[C@@H]2CO)[C@H](O)[C@@H](O)[C@@H]1N[C@H]1C=C(CO)[C@@H](O)[C@H](O)[C@H]1O` (stereo partly drawn) [acarbose, reference compound], in the experiment with normal C57BL/6J mice (setting [8]), the Blood glucose levels was 7.39 ± 0.70 and 7.38 ± 0.95 and 7.90 ± 0.56 and 8.09 ± 0.60 and 7.16 ± 0.52 and 7.98 ± 0.58; the “Rate of blood glucose reduction” value was 49.31% and 47.09% and 48.83% and 44.13% and 46.72% and 50.02%.
As to `O=c1c(O[C@@H]2O[C@H](CO)[C@@H](O)[C@H](O)[C@H]2O)c(-c2ccc(O)cc2)oc2cc(O)cc(O)c12` [C7, astragalin], the “effect on postprandial blood glucose” value in the experiment with normal C57BL/6J mice (30 min after the sucrose load, compared to the model group, C7 at 10, 50 or 250 mg/kg) was “no glucose-lowering effect”.
`O=c1c(O)c(-c2ccc(O)cc2)oc2cc(O)cc(O)c12` [C2, kaempferol]: at α-glucosidase [2] (setting [5]), the β-turn was 12.5%, the β-sheet is listed as 25.3% and the random coil turned out to be 48.2%. Further, on α-glucosidase [2] (setting [6]), the β-turn was determined as 13.3%, the α-helix is 9.70%, the β-sheet was found to be 23.9% and the random coil is listed as 53.1%. Moreover, the α-helix on α-glucosidase [2] (setting [7]) worked out at 14.1%. In the experiment on normal C57BL/6J mice (10 mg/kg oral), the Blood glucose levels stood at 12.68 ± 1.47 and the “Rate of blood glucose reduction” value was determined as 9.06%. Further, in the experiment on normal C57BL/6J mice (50 mg/kg oral), the Blood glucose levels came to 12.79 ± 0.81 and the “Rate of blood glucose reduction” value was determined as 8.25%. In the experiment with normal C57BL/6J mice (100 mg/kg oral), the Blood glucose levels came to 11.88 ± 1.62 and the “Rate of blood glucose reduction” value amounted to 14.80%. The “type of inhibition on α-glucosidase” value at α-glucosidase [3] is “mixed-type inhibitors”.
`C[C@@H]1O[C@@H](OC[C@H]2O[C@@H](Oc3c(-c4ccc(O)c(O)c4)oc4cc(O)cc(O)c4c3=O)[C@H](O)[C@@H](O)[C@@H]2O)[C@H](O)[C@H](O)[C@H]1O` [C6, rutin] returned an IC50 in experiment [1] of 211 ± 11.2 µM. Also, at α-glucosidase [2] (setting [5]), the β-turn is listed as 12.1%, the β-sheet is on record as 26.9% and the random coil came to 45.5%. On α-glucosidase [2] (setting [6]), the β-turn came out at 17.6%, the α-helix was found to be 9.30%, the β-sheet is reported as 14.3% and the random coil is on record as 58.8%. Moreover, the α-helix at α-glucosidase [2] (setting [7]) is given as 15.5%. Besides, in the experiment on normal C57BL/6J mice (2 mg/kg oral), the Blood glucose levels is 14.68 ± 1.00 and the “Rate of blood glucose reduction” value is reported as -1.38%. Besides, in the experiment with normal C57BL/6J mice (10 mg/kg oral), the Blood glucose levels is listed as 12.81 ± 1.23 and the “Rate of blood glucose reduction” value came out at 11.49%. Moreover, in the experiment on normal C57BL/6J mice (50 mg/kg oral), the Blood glucose levels turned out to be 11.83 ± 0.71 and the “Rate of blood glucose reduction” value came out at 18.31%.
Consider `O=C1C[C@@H](c2ccc(O)cc2)Oc2cc(O)cc(O)c21` [C5, naringenin], for which, on α-glucosidase [2] (setting [5]), the β-turn turned out to be 12.8%, the β-sheet came to 20.6% and the random coil came to 53.3%. Moreover, on α-glucosidase [2] (setting [6]), the β-turn turned out to be 13%, the α-helix was 15.3%, the β-sheet is listed as 25.3% and the random coil was determined as 46.5%. For the same molecule, the α-helix on α-glucosidase [2] (setting [7]) turned out to be 13.2%. Further, in the experiment on normal C57BL/6J mice (5 mg/kg oral), the Blood glucose levels amounted to 14.56 ± 1.96 and the “Rate of blood glucose reduction” value was found to be 5.67%. Besides, in the experiment with normal C57BL/6J mice (25 mg/kg oral), the Blood glucose levels amounted to 13.23 ± 0.63 and the “Rate of blood glucose reduction” value is listed as 14.33%. In the experiment with normal C57BL/6J mice (100 mg/kg oral), the Blood glucose levels worked out at 12.39 ± 1.03 and the “Rate of blood glucose reduction” value is reported as 19.76%. For the same molecule, the “type of inhibition on α-glucosidase” value on α-glucosidase [3] is reported as “mixed-type inhibitors”. On α-glucosidase [4], the IC05 is 26.47 µM.
For `O=c1c(-c2ccc(O)cc2)coc2cc(O)cc(O)c12` [C8, genistein], the Blood glucose levels is given as 13.91 ± 1.00 in the experiment with normal C57BL/6J mice (25 mg/kg oral), 13.26 ± 0.72 with normal C57BL/6J mice (50 mg/kg oral) and 12.06 ± 0.82 with normal C57BL/6J mice (100 mg/kg oral). In addition, the results for the “Rate of blood glucose reduction” value with normal C57BL/6J mice (25 mg/kg oral), with normal C57BL/6J mice (50 mg/kg oral) and in the experiment on normal C57BL/6J mice (100 mg/kg oral) were 4.55%, 9.01% and 17.24%, respectively.
Turning to `O=c1c(O)c(-c2ccc(O)c(O)c2)oc2cc(O)cc(O)c12` [C1, quercetin], the β-turn on α-glucosidase [2] (setting [5]) was found to be 13.1%; on α-glucosidase [2] (setting [6]) it was 12.5%. The values for the β-sheet at α-glucosidase [2] (setting [5]) and on α-glucosidase [2] (setting [6]) were 23.6% and 27.9%, respectively. For the same molecule, the figures for the random coil on α-glucosidase [2] (setting [5]) and at α-glucosidase [2] (setting [6]) were 49.1% and 48.5%, respectively. Further, the α-helix on α-glucosidase [2] (setting [6]) came out at 11.1%; on α-glucosidase [2] (setting [7]), 14.0%. Moreover, the Blood glucose levels is recorded as 14.46 ± 1.06 in the experiment on normal C57BL/6J mice (10 mg/kg oral), 13.41 ± 0.41 in the experiment with normal C57BL/6J mice (50 mg/kg oral) and 12.26 ± 1.65 in the experiment on normal C57BL/6J mice (100 mg/kg oral). The “Rate of blood glucose reduction” value in the experiment with normal C57BL/6J mice (10 mg/kg oral) stood at 0.77%; with normal C57BL/6J mice (50 mg/kg oral), 7.98%; in the experiment on normal C57BL/6J mice (100 mg/kg oral) it was 15.87%. The “type of inhibition on α-glucosidase” value on α-glucosidase [3] is on record as “mixed-type inhibitors”. Moreover, the IC05 at α-glucosidase [4] was 0.82 µM. Further, the “inhibition rate against α-glucosidase” value on α-glucosidase [4] (each compound alone at its IC05 concentration, Com2 = mixture of the seven at IC05 (381.58 μM in total)) is listed as 4.70 ± 1.66%; on α-glucosidase [4] (each compound alone at its IC15 concentration, Com1 = mixture of the four at IC15 (117 μM in total)) it was 17.16 ± 0.75%.

By IC50 is commonly meant the point on the concentration scale where inhibition reaches its midpoint. Read a high IC50 as lower potency.
